Read-outs that look alike come from different tables or passages of the source.
Tested on: murine fibroblasts (NIH3T3) over-expressing human IGF-1 receptor
Assay: Inhibition of IGF-stimulated cell proliferation (BrdU incorporation), Test (c)
Assay type: cell-based
Description: The construction of murine fibroblasts (NIH3T3) over-expressing human IGF-1 receptor has been described by Lammers et al (EMBO J, 8, 1369-1375, 1989). These cells show a proliferative response to IGF-I which can be measured by BrdU incorporation into newly synthesised DNA. Compound potency was determined as causing inhibition of the IGF-stimulated proliferation in the following assay:
Compounds are initially dissolved in DMSO to 10 mM, followed by dilutions in DMEM+1% FCS+glutamine to give a range from […] in 1-0.00045% DMSO final concentration in assay well.
Exponentially growing NIH3T3/IGFR cells were harvested and seeded in complete growth medium into a flat-bottomed 96 well tissue culture grade plate (Costar 3525) at 1.2×10^4 cells per well in a volume of 100 μl.
Growth medium was carefully removed from each well using a multi-channel pipette. Wells were carefully rinsed three times with 200 μl with HBSS. […] of starvation medium was added to each well and the plate was re-incubated for 24 hours.
50 μl of a 4× concentrate of test compound was added to appropriate wells. Cells were incubated for 30 minutes with compound alone before the addition of IGF. […]
The incorporation of BrdU in the cells (after a 4 h incorporation period) was assessed using the BrdU Cell Proliferation Elisa according to the manufacturer's protocol.

Compound | IC50 (Mus musculus) [µM] | IC50 [µM]
Cc1cc(Nc2nc(N3C[C@@H](O)C[C@H]3c3cc(-c4ccccn4)no3)ncc2Cl)n[nH]1 [Example 4, 5-Chloro-2-[(2S,4S)-4-hydroxy-2-[3-(pyrid-2-yl)isoxazol-5-yl]pyrrolidin-1-yl]-4-(5-methyl-1H-pyrazol-3-ylamino)pyrimidine] | 0.93 | –
Cc1cc(Nc2nc(N3C[C@H](O)C[C@H]3c3cc(-c4ccccn4)no3)ncc2Cl)n[nH]1 [Example 3, 5-Chloro-2-{(2S4R)-4-hydroxy-2-[3-(pyrid-2-yl)isoxazol-5-yl]pyrrolidin-1-yl}-4-(5-methyl-1H-pyrazol-3-ylamino)pyrimidine] | – | 0.8

— US20080161330A1, “Pyrimidines as Igf-I Inhibitors” (ASTRAZENECA AB, priority 2005, published 2008)
